According to patent US11008301B2, “Piperidinone formyl peptide 2 receptor agonists” (BRISTOL-MYERS SQUIBB COMPANY, priority 2017, dated 2021):
pEC50: −log10 of the molar value. Like-named read-outs stand apart in the source and are kept apart here.

Assays:
human FPR2 = human FPR2 (Homo sapiens (Human), UniProt P25090); experiment: FPR2 cyclic adenosine monophosphate (cAMP) assay; assay type: cell-based; conditions: CHO cells overexpressing human FPR2
Protocol: (§1) FPR2 and FPR1 Cyclic Adenosine Monophosphate (cAMP) Assays. A mixture of forskolin (5 μM final for FPR2 or 10 μM final for FPR1) and IBMX (200 μM final) were added to 384-well Proxiplates (Perkin-Elmer) pre-dotted with test compounds in DMSO (1% final) at final concentrations in the range of 1.7 nM to 100 μM. Chinese Hamster Ovary cells (CHO) overexpressing human FPR1 or human FPR2 receptors were cultured in F-12 (Ham's) medium supplemented with 10% qualified FBS, 250 μg/ml zeocin and 300 μg/ml hygromycin (Life Technologies). Reactions were initiated by adding 2,000 human FPR2 cells per well or 4,000 human FPR1 cells per well in Dulbecco's PBS (with calcium and magnesium) (Life Technologies) supplemented with 0.1% BSA (Perkin-Elmer). The reaction mixtures were incubated for 30 min at room temperature. The level of intracellular cAMP was determined using the HTRF HiRange cAMP assay reagent kit (Cisbio) according to manufacturer's instruction. Solutions of cryptate conjugated anti-cAMP and d2 flurorophore-labelled cAMP were made in a supplied lysis buffer separately. Upon completion of the reaction, the cells were lysed with equal volume of the d2-cAMP solution and anti-cAMP solution. After a 1-h room temperature incubation, time-resolved fluorescence intensity was measured using the Envision (Perkin-Elmer) at 400 nm excitation and dual emission at 590 nm and 665 nm. A calibration curve was constructed with an external cAMP standard at concentrations ranging from 1 μM to 0.1 pM by plotting the fluorescent intensity ratio from 665 nm emission to the intensity from the 590 nm emission against cAMP concentrations. The potency and activity of a compound to inhibit cAMP production was then determined by fitting to a 4-parametric logistic equation from a plot of cAMP level versus compound concentrations.

human FPR1 = human FPR1 (Homo sapiens (Human), UniProt P21462); experiment: FPR1 cyclic adenosine monophosphate (cAMP) assay; assay type: cell-based; conditions: CHO cells overexpressing human FPR1; forskolin 10 μM; inhibition of cAMP production; read-out: hFPR1 cAMP EC50
Protocol: as §1

[1] = forskolin 5 μM, inhibition of cAMP production, read-out: hFPR2 cAMP2 EC50
[2] = cAMP assay, read-out: hFPR2 agonist activity EC50 (hFPR2 Assay)

human FPR1, sequence (P21462 whole entry): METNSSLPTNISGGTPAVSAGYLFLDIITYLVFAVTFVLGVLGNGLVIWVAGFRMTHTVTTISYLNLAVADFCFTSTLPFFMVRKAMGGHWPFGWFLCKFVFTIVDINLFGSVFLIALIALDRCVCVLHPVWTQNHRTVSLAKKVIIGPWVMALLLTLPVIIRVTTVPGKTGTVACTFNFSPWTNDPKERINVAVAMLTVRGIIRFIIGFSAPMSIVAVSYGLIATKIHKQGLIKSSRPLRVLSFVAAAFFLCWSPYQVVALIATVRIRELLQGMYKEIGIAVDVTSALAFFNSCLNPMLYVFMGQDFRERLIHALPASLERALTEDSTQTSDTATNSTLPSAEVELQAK
human FPR2, sequence (P25090 whole entry): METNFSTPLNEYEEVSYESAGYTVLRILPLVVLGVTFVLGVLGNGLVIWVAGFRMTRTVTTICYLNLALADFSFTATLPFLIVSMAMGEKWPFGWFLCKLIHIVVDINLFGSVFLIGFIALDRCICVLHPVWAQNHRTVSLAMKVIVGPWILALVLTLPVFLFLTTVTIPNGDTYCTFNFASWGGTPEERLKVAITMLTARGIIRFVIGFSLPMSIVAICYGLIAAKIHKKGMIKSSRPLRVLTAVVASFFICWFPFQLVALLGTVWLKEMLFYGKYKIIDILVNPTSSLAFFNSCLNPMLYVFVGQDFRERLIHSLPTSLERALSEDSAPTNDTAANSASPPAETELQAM

| pEC50 (human FPR2; [1]) | pEC50 (human FPR1) | pEC50 (human FPR2; [2]) | Structure (SMILES) |
| --- | --- | --- | --- |
| 8.52 | 7.96 | – | O=C(Nc1ccc(C(F)(F)F)cc1)N[C@@H]1CCCN(c2ccc(N3CCCCC3)cc2)C1=O [Example 45] |
| 8.60 | 7.12 | – | O=C(Nc1ccc(Cl)cc1)N[C@@H]1CCCN(c2ccc(N3C[C@H]4COC[C@H]4C3)cc2)C1=O [Example 95] |
| 8.59 | 6.48 | – | O=C(Nc1ccc(Cl)cc1)N[C@@H]1CCCN(c2ccc(N3C[C@H]4CC[C@@H](C3)O4)cc2F)C1=O [Example 107] |
| 8.62 | 7.17 | – | O=C(Nc1ccc(C(F)(F)F)cc1)N[C@@H]1CCCN(c2ccc(N3CCCC(F)(F)C3)cc2)C1=O [Example 70] |
| 9.51 | 5.77 | – | CN(C)C1CCN(c2ccc(N3CCC[C@@H](NC(=O)Nc4ccc(Cl)cc4F)C3=O)c(F)c2)C1 (stereo partly drawn) [Example 81] |
| 6.27 | 5.82 | 6.00 to 7.00 | O=C(Nc1ccc(C(F)(F)F)cc1)N[C@H]1CCCN(c2ccc(N3CC4(COC4)C3)cc2)C1=O [Example 9] |
| 6.40 | 5.66 | – | CS(=O)(=O)N1CCN(c2ccc(N3CCC[C@@H](NC(=O)Nc4ccc(C(F)(F)F)cc4)C3=O)cc2)CC1 [Example 34] |
| 7.51 | 6.04 | – | O=C(Nc1ccc(C(F)(F)F)cc1)N[C@@H]1CCCN(c2ccc(N3CCOCC3)nc2)C1=O [Example 54, (R)-1-(1-(6-Morpholinopyridin-3-yl)-2-oxopiperidin-3-yl)-3-(4-(trifluoromethyl)phenyl)urea] |
| 7.74 | 6.20 | – | O=C(Nc1ccc(C(F)(F)F)cc1)N[C@@H]1CCCN(c2ccc(N3C[C@H]4CC[C@@H](C3)O4)nc2)C1=O [Example 104] |
| 9.41 | 5.96 | – | CN(C)C1CCN(c2ccc(N3CCC[C@@H](NC(=O)Nc4ccc(Cl)cc4)C3=O)cc2F)C1 (stereo partly drawn) [Example 83] |
| 7.55 | 6.39 | 7.00 to 8.00 | O=C(Nc1ccc(C(F)(F)F)cc1)N[C@@H]1CCCN(c2ccc(N3CCCCC3=O)cc2)C1=O [Example 4] |
| 6.42 | 5.30 | 6.00 to 7.00 | O=C(Nc1ccc(C(F)(F)F)cn1)N[C@@H]1CCCN(c2ccc(N3CC4(COC4)C3)cc2)C1=O [Example 12] |
